Tests used:
caspase-6 = biological target: T1, caspase-6 (Mus musculus, UniProt O08738); experiment: Lamin A cleavage in primary cortical neuronal culture treated with camptothecin; format: cell-based, FVB/N mice; conditions: 10 uM compound; 10 uM camptothecin for 30 h
T1 construct: endogenous in cells; host or cells: primary cortical neurons from FVB/N mice
T1 sequence (O08738 6-276): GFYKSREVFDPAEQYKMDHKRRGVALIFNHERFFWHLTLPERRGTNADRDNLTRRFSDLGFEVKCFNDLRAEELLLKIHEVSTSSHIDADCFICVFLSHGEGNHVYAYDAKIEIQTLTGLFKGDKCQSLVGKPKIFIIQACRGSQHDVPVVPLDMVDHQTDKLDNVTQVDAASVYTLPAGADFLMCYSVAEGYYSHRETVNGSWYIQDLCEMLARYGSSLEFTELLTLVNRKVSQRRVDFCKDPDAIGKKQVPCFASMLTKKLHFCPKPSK
Method: Cortical neuronal cultures from FVB mice were prepared as described (Metzler et al, J Neurosci (2007) 27(9):2298). At day 10 in vitro, cells were treated with camptothecin, and after 30 h harvested by scraping in PBS supplemented with 1× complete protease inhibitor (Roche) and 4 mM Pefabloc. Cells were lysed by suspension in lysis buffer (50 mM Tris pH8, 150 mM NaCl, 1% Igepal, supplemented with 1× complete protease inhibitor (Roche) and 4 mM Pefabloc). Lysates were incubated on ice for 10 min, vortexed and sonicated for 4 sec before centrifugation at 21 000×g for 10 min at 4° C. Supernatants were saved, protein concentration determined with the Biorad DC assay and quantitative assessment of cleaved lamin A in neuronal lysates was performed with the Mesoscale ELISA method as described in Ehrnhoefer et al. PLoS One, 2011. 6(11):e27680.
Next, it was determined whether the PG-3d compound could inhibit caspase-6 within neuronal cells in an in vitro neuronal system which may be more relevant for the testing of therapeutics for neurodegeneration. Briefly, primary cortical neuronal cultures from FVB/N mice were treated with 10 uM camptothecin for 30 h starting at DIV10 in the presence or absence of 10 uM of the PG-3d compound.

primary cortical neurons = experiment: Neuronal viability during excitotoxic (NMDA) stress, intracellular ATP; format: cell-based, FVB/N mice; conditions: 10 uM compound; NMDA 25 uM or 50 uM, 20 h
Method: Cortical neuronal cultures from FVB mice were prepared as described (Metzler et al, J Neurosci (2007) 27(9):2298). […] The measurement of intracellular ATP was used as an assessment of neuronal viability as described previously (Uribe et al, HMG 2012. 21(9):1954-67) using the Cell-titer glo kit from Promega according to manufacturer's instructions.
It has been previously been shown in HD animal models that neuronal cells expressing mHTT have an increased vulnerability to excitotoxic stress (Graham et al. 2005. Neurobiol. Dis. 21:444-455) and that this may be mediated by caspase 6 (Graham et al. 2006. Cell 6(13):1179-1191 and Uribe et al HMG 2012; 21(9):1954-67). The link between NMDA-induced toxicity and other neurodegenerative diseases has been reviewed by Lipton et al., Nat Rev Drug Discovery 2006. 5:160-170. Therefore, the effect of the presence of the PG-3d compound on the ability of neuronal cells to survive during excitotoxic stress via its ability to inhibit the caspase-6 enzyme was investigated.

O=c1oc(C#Cc2ccccc2)nc(O)c1Cc1ccccc1 [PG-3d, 5-Benzyl-4-hydroxy-2-(phenylethynyl)-6H-1,3-oxazin-6-one]
caspase-6 activity (cleaved lamin A) (caspase-6): significantly reduces | cell viability (intracellular ATP) (primary cortical neurons): significant improvement
